In the supplement of paper PMC10307832 one finds relative viability data, which are given here for 9 cell lines.

Holding throughout (assay): relative viability (nuclei count vs DMSO), 5 days (fraction); higher = more cells survive
Compound in the assay “KN-93 + Trametinib”: CN(C/C=C/C1=CC=C(C=C1)Cl)CC2=CC=CC=C2N(CCO)S(=O)(=O)C3=CC=C(C=C3)OC [KN-93] + CC(=O)Nc1cccc(-n2c(=O)n(C3CC3)c(=O)c3c(Nc4ccc(I)cc4F)n(C)c(=O)c(C)c32)c1 [Trametinib] (partner 0.02 µM)
An outline of the steps: (§1)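 Cells from lung cancer lines were seeded into 1536-well plates and, one day later, dosed by pin tool. Treatments were either a single drug or a fixed dose of an anchor drug with five library-drug doses (not always all listed) in √10 steps. After 5 days, nuclei were stained in a one-step fixation (final 0.05% Triton X-100, 1% formaldehyde, 1 ug/ml Hoechst) and counted on 4× images, and relative viability is the treated-to-vehicle nuclei ratio, as the median of duplicate plates.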

Compound in the assay “KN-93 + Palbociclib”: CN(C/C=C/C1=CC=C(C=C1)Cl)CC2=CC=CC=C2N(CCO)S(=O)(=O)C3=CC=C(C=C3)OC [KN-93] + CC(=O)c1c(C)c2cnc(Nc3ccc(N4CCNCC4)cn3)nc2n(C2CCCC2)c1=O [Palbociclib] (partner 0.5 µM)
An outline of the steps:
as §1

Compound in the assay “KN-93 + Luminespib”: CN(C/C=C/C1=CC=C(C=C1)Cl)CC2=CC=CC=C2N(CCO)S(=O)(=O)C3=CC=C(C=C3)OC [KN-93] + CCNC(=O)c1noc(-c2cc(C(C)C)c(O)cc2O)c1-c1ccc(CN2CCOCC2)cc1 [Luminespib] (partner 0.01 µM)
An outline of the steps: as §1

Compound in the assay “KN-93 + Lapatinib”: CN(C/C=C/C1=CC=C(C=C1)Cl)CC2=CC=CC=C2N(CCO)S(=O)(=O)C3=CC=C(C=C3)OC [KN-93] + CS(=O)(=O)CCNCc1ccc(-c2ccc3ncnc(Nc4ccc(OCc5cccc(F)c5)c(Cl)c4)c3c2)o1 [Lapatinib] (partner 2 µM)
An outline of the steps:
as §1

Compound in the assay “KN-93 + Pictilisib”: CN(C/C=C/C1=CC=C(C=C1)Cl)CC2=CC=CC=C2N(CCO)S(=O)(=O)C3=CC=C(C=C3)OC [KN-93] + CS(=O)(=O)N1CCN(Cc2cc3nc(-c4cccc5[nH]ncc45)nc(N4CCOCC4)c3s2)CC1 [Pictilisib] (partner 1 µM)
An outline of the steps:
as §1

For the cell line LU99A, the relative viability with KN-93 + Trametinib (first compound 0.08 µM) stood at 0.603; in the assay with KN-93 + Trametinib (first compound 0.253 µM), 0.626; in the assay with KN-93 + Trametinib (first compound 2.53 µM), 0.496; in the assay with KN-93 + Trametinib (first compound 8 µM), 0.431; with KN-93 + Palbociclib (first compound 0.08 µM), 0.455; with KN-93 + Palbociclib (first compound 0.253 µM) it was 0.457. Further, the relative viability amounted to 0.397 with KN-93 + Palbociclib (first compound 2.53 µM); 0.371 in the assay with KN-93 + Palbociclib (first compound 8 µM); 0.222 in the assay with KN-93 + Luminespib (first compound 0.08 µM); 0.23 with KN-93 + Luminespib (first compound 0.253 µM); 0.327 in the assay with KN-93 + Luminespib (first compound 2.53 µM); 0.246 with KN-93 + Luminespib (first compound 8 µM). Besides, the relative viability is 1.16 in the assay with KN-93 + Lapatinib (first compound 0.08 µM); 1.21 in the assay with KN-93 + Lapatinib (first compound 0.253 µM); 0.797 with KN-93 + Lapatinib (first compound 2.53 µM); 0.89 in the assay with KN-93 + Lapatinib (first compound 8 µM); 0.302 with KN-93 + Pictilisib (first compound 0.08 µM); 0.366 with KN-93 + Pictilisib (first compound 0.253 µM). The figures for the relative viability with KN-93 + Pictilisib (first compound 2.53 µM) and in the assay with KN-93 + Pictilisib (first compound 8 µM) were 0.32 and 0.308, respectively.
As to LXF-289, the relative viability with KN-93 + Trametinib (first compound 0.08 µM) turned out to be 0.661; with KN-93 + Trametinib (first compound 0.253 µM), 0.69; with KN-93 + Trametinib (first compound 2.53 µM), 0.666; with KN-93 + Trametinib (first compound 8 µM), 0.592; in the assay with KN-93 + Palbociclib (first compound 0.08 µM), 0.512; with KN-93 + Palbociclib (first compound 0.253 µM), 0.672. Also, the relative viability in the assay with KN-93 + Palbociclib (first compound 2.53 µM) is 0.628; in the assay with KN-93 + Palbociclib (first compound 8 µM), 0.552; with KN-93 + Luminespib (first compound 0.08 µM) it was 0.536; in the assay with KN-93 + Luminespib (first compound 0.253 µM) it was 0.833; with KN-93 + Luminespib (first compound 2.53 µM), 0.787; in the assay with KN-93 + Luminespib (first compound 8 µM) it was 0.588. For the same cell line, the relative viability turned out to be 0.845 with KN-93 + Lapatinib (first compound 0.08 µM); 0.934 with KN-93 + Lapatinib (first compound 0.253 µM); 1 in the assay with KN-93 + Lapatinib (first compound 2.53 µM); 0.737 with KN-93 + Lapatinib (first compound 8 µM); 0.724 with KN-93 + Pictilisib (first compound 0.08 µM); 0.891 in the assay with KN-93 + Pictilisib (first compound 0.253 µM). Besides, the relative viability in the assay with KN-93 + Pictilisib (first compound 2.53 µM) was found to be 0.825; in the assay with KN-93 + Pictilisib (first compound 8 µM) it was 0.559.
Take NCI-H23: the relative viability in the assay with KN-93 + Trametinib (first compound 0.08 µM) was 0.331; with KN-93 + Trametinib (first compound 0.253 µM), 0.397; with KN-93 + Trametinib (first compound 2.53 µM), 0.432; in the assay with KN-93 + Trametinib (first compound 8 µM), 0.326; with KN-93 + Palbociclib (first compound 0.08 µM) it was 0.516; with KN-93 + Palbociclib (first compound 0.253 µM) it was 0.493. The relative viability with KN-93 + Palbociclib (first compound 2.53 µM) stood at 0.618; with KN-93 + Palbociclib (first compound 8 µM) it was 0.418; in the assay with KN-93 + Luminespib (first compound 0.08 µM) it was 0.227; in the assay with KN-93 + Luminespib (first compound 0.253 µM), 0.185; with KN-93 + Luminespib (first compound 2.53 µM), 0.199; with KN-93 + Luminespib (first compound 8 µM) it was 0.212. The relative viability in the assay with KN-93 + Lapatinib (first compound 0.08 µM) is 1.05; with KN-93 + Lapatinib (first compound 0.253 µM), 1.1; with KN-93 + Lapatinib (first compound 2.53 µM) it was 1.31; with KN-93 + Lapatinib (first compound 8 µM), 0.883; with KN-93 + Pictilisib (first compound 0.08 µM), 0.414; in the assay with KN-93 + Pictilisib (first compound 0.253 µM), 0.559. The figures for the relative viability with KN-93 + Pictilisib (first compound 2.53 µM) and in the assay with KN-93 + Pictilisib (first compound 8 µM) were 0.58 and 0.446, respectively.
Turning to NCI-H322M, the relative viability with KN-93 + Trametinib (first compound 0.08 µM) stood at 0.478; in the assay with KN-93 + Trametinib (first compound 0.253 µM), 0.575; with KN-93 + Trametinib (first compound 2.53 µM), 0.488; with KN-93 + Trametinib (first compound 8 µM), 0.442; in the assay with KN-93 + Palbociclib (first compound 0.08 µM), 0.481; with KN-93 + Palbociclib (first compound 0.253 µM), 0.503. Moreover, the relative viability with KN-93 + Palbociclib (first compound 2.53 µM) is 0.494; in the assay with KN-93 + Palbociclib (first compound 8 µM) it was 0.445; in the assay with KN-93 + Luminespib (first compound 0.08 µM), 0.921; with KN-93 + Luminespib (first compound 0.253 µM), 0.793; with KN-93 + Luminespib (first compound 2.53 µM), 0.954; in the assay with KN-93 + Luminespib (first compound 8 µM) it was 0.752. Also, the relative viability worked out at 0.605 with KN-93 + Lapatinib (first compound 0.08 µM); 0.633 with KN-93 + Lapatinib (first compound 0.253 µM); 0.61 with KN-93 + Lapatinib (first compound 2.53 µM); 0.566 with KN-93 + Lapatinib (first compound 8 µM); 0.496 with KN-93 + Pictilisib (first compound 0.08 µM); 0.423 with KN-93 + Pictilisib (first compound 0.253 µM). Further, the relative viability with KN-93 + Pictilisib (first compound 2.53 µM) is 0.531; with KN-93 + Pictilisib (first compound 8 µM), 0.51.
NCI-H441: the relative viability with KN-93 + Trametinib (first compound 0.253 µM) stood at 0.422; in the assay with KN-93 + Trametinib (first compound 2.53 µM) it was 0.401; with KN-93 + Trametinib (first compound 8 µM), 0.177; in the assay with KN-93 + Palbociclib (first compound 0.253 µM), 0.171; with KN-93 + Palbociclib (first compound 2.53 µM) it was 0.185; with KN-93 + Palbociclib (first compound 8 µM), 0.147. Further, the relative viability with KN-93 + Luminespib (first compound 0.08 µM) turned out to be 0.295; in the assay with KN-93 + Luminespib (first compound 0.253 µM), 0.417; with KN-93 + Luminespib (first compound 2.53 µM) it was 0.36; with KN-93 + Luminespib (first compound 8 µM), 0.287; in the assay with KN-93 + Pictilisib (first compound 0.08 µM), 0.356; with KN-93 + Pictilisib (first compound 0.253 µM) it was 0.53. The figures for the relative viability with KN-93 + Pictilisib (first compound 2.53 µM) and with KN-93 + Pictilisib (first compound 8 µM) were 0.591 and 0.3, respectively.
Regarding NCI-H522, the relative viability in the assay with KN-93 + Trametinib (first compound 0.08 µM) came out at 0.997; with KN-93 + Trametinib (first compound 0.253 µM), 0.855; with KN-93 + Trametinib (first compound 2.53 µM), 0.794; with KN-93 + Trametinib (first compound 8 µM), 0.595; with KN-93 + Palbociclib (first compound 0.08 µM), 1.1; with KN-93 + Palbociclib (first compound 0.253 µM), 1.31. In addition, the relative viability in the assay with KN-93 + Palbociclib (first compound 2.53 µM) was 1; in the assay with KN-93 + Palbociclib (first compound 8 µM), 0.81; in the assay with KN-93 + Luminespib (first compound 0.08 µM), 1.28; with KN-93 + Luminespib (first compound 0.253 µM), 1.4; with KN-93 + Luminespib (first compound 2.53 µM) it was 1.39; with KN-93 + Luminespib (first compound 8 µM) it was 1.11.
With NCI-H596, the relative viability is 0.708 with KN-93 + Trametinib (first compound 0.08 µM); 0.847 with KN-93 + Trametinib (first compound 0.253 µM); 0.836 with KN-93 + Trametinib (first compound 2.53 µM); 0.586 with KN-93 + Trametinib (first compound 8 µM); 0.924 in the assay with KN-93 + Luminespib (first compound 0.08 µM); 1.34 in the assay with KN-93 + Luminespib (first compound 0.253 µM). Besides, the relative viability was found to be 1.21 with KN-93 + Luminespib (first compound 2.53 µM); 0.789 with KN-93 + Luminespib (first compound 8 µM); 1.05 with KN-93 + Lapatinib (first compound 0.08 µM); 0.945 in the assay with KN-93 + Lapatinib (first compound 0.253 µM); 1.23 with KN-93 + Lapatinib (first compound 2.53 µM); 0.985 with KN-93 + Lapatinib (first compound 8 µM). Moreover, the relative viability with KN-93 + Pictilisib (first compound 0.08 µM) is 0.419; with KN-93 + Pictilisib (first compound 0.253 µM), 0.361; with KN-93 + Pictilisib (first compound 2.53 µM) it was 0.381; with KN-93 + Pictilisib (first compound 8 µM), 0.368.
In the case of NCI-H1563, the relative viability is 0.625 with KN-93 + Luminespib (first compound 0.08 µM); 0.483 with KN-93 + Luminespib (first compound 0.253 µM); 0.577 with KN-93 + Luminespib (first compound 2.53 µM); 0.517 with KN-93 + Luminespib (first compound 8 µM); 0.946 with KN-93 + Lapatinib (first compound 0.08 µM); 1 with KN-93 + Lapatinib (first compound 0.253 µM). Further, the relative viability was determined as 0.937 with KN-93 + Lapatinib (first compound 2.53 µM); 0.641 with KN-93 + Lapatinib (first compound 8 µM); 0.661 in the assay with KN-93 + Pictilisib (first compound 0.08 µM); 0.618 with KN-93 + Pictilisib (first compound 0.253 µM); 0.648 with KN-93 + Pictilisib (first compound 2.53 µM); 0.608 in the assay with KN-93 + Pictilisib (first compound 8 µM).
As to SW 900, the relative viability with KN-93 + Trametinib (first compound 0.08 µM) worked out at 0.93; in the assay with KN-93 + Trametinib (first compound 0.253 µM), 0.835; in the assay with KN-93 + Trametinib (first compound 2.53 µM) it was 1.04; in the assay with KN-93 + Trametinib (first compound 8 µM) it was 0.643; with KN-93 + Palbociclib (first compound 0.08 µM) it was 0.539; with KN-93 + Palbociclib (first compound 0.253 µM), 0.592. The relative viability with KN-93 + Palbociclib (first compound 2.53 µM) was found to be 0.509; with KN-93 + Palbociclib (first compound 8 µM), 0.471; in the assay with KN-93 + Luminespib (first compound 0.08 µM), 0.166; with KN-93 + Luminespib (first compound 0.253 µM) it was 0.178; with KN-93 + Luminespib (first compound 2.53 µM), 0.145; with KN-93 + Luminespib (first compound 8 µM) it was 0.182.
